Tests used:
[1] = test system: BT474 and HN5 tumor cell lines; assay: Methylene blue growth inhibition assay (cellular Method A); format: cell-based, Human; conditions: Homo sapiens, BT-474, 72 h, 3 days, read-out: Activity (Method): growth inhibition IC50 class
Method in brief: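 Growth inhibition measured by methylene blue staining of biomass (OD 620) after 3 days' compound exposure at 37° C, final DMSO 0.3%. Cell lines: BT474 (10,000/well), HN5 (3,000/well) and Colo205, all in DMEM with 10% FBS; IC50 fitted by nonlinear regression against vehicle-treated wells.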

ErbB2 or EGFR = target: T1, ErbB2 or EGFR; assay: ErbB family substrate phosphorylation enzyme assay (HTRF), Method A or Method B; format: biochemical
T1 construct: enzymes purified from a baculovirus expression system; Reagent production was conducted essentially as described in Brignola, P. S., et al, (2002) J. Biol. Chem. 277(2): 1576-1585
Method in brief: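 Baculovirus-expressed EGFR or ErbB2 (0.8 or 10 nM in enzyme mix) phosphorylates biotinylated Peptide C with 20 µM ATP and 0.8 µM peptide (substrate-mix levels), MnCl2, pH 7.5. Reaction ran 90 min at 20 °C with EDTA stop and HTRF anti-phosphotyrosine read. Method A: enzyme added last; Method B: 1 h enzyme–compound preincubation.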

Colo205 tumor cell lines = assay: Methylene blue growth inhibition assay (cellular Method A), Colo205; format: cell-based, Human; conditions: Homo sapiens, COLO 205, 72 h, 3 days, read-out: Activity (Method): growth inhibition IC50 class
Description: Human breast (BT474) and head and neck (HN5) were cultured in low glucose DMEM (Life Technologies 12320-032) containing 10% fetal bovine serum (FBS). Human colon tumor cells (Colo205) were cultured in DMEM (Invitrogen, 10564) containing 10% FBS. The SV40 transformed human mammary epithelial cell line HB4a was transfected with either human H-ras cDNA (HB4a r4.2) or the human c-ErbB2 cDNA (HB4a c5.2). The HB4a clones were cultured in RPMI containing 10% FBS, insulin (5 g/mL), hydrocortisone (5 g/mL), supplemented with the selection agent hygromycin B (50 g/mL). All lines were grown in a humidified incubator at 37° C. in 95% air, 5% CO2. Cells were harvested using trypsin/EDTA, counted using a haemocytometer, and plated in 100 microliters of the appropriate media, at the following densities, in a 96-well tissue culture plate (Falcon 3075): BT474 10,000 cells/well, HN5 3,000 cells/well. The next day, compounds were diluted in DMEM containing […] gentamicin, at twice the final required concentration, from 10 mM stock solutions in DMSO. 100 microliters/well of these dilutions were added to the 100 microliters of media currently on the cell plates. Medium containing 0.6% DMSO was added to control wells. Compounds diluted in DMEM were added to all cell lines. The final concentration of DMSO in all wells was 0.3%. Cells were returned to the incubator (37° C., 10% CO2) for 3 days. Medium was then removed by aspiration. Cell biomass was estimated by staining cells with 90 microliters per well methylene blue (Sigma M9140, 0.5% in 1:1 ethanol:water), and incubation at rt for at least 30 minutes. Stain was removed, and the plates rinsed by immersion in deionized water and air-dried. To release stain from the cells 100 microliters of solubilization solution was added (1% N-lauroyl sarcosine, Sodium salt, Sigma L5125, in PBS), and plates were shaken gently for about 30 minutes. Optical density at 620 nm was measured on a microplate reader. Percent inhibition of cell growth was calculated relative to vehicle treated control wells. Concentration of compound that inhibits 50% of control cell growth (IC50) was interpolated using nonlinear regression (Levenberg-Marquardt) and the equation, y=Vmax*(1−(x/(K+x)))+Y2, where “K” was equal to the IC50. Method B: Celltiter Glo® Growth Inhibition Assays

[2] = Method B: enzyme mix pre-incubated with compound 1 hour at 20° C., started with substrate mix
[3] = Method A: substrate mix added first, reaction started with enzyme mix

Structure (SMILES) | IC50 [1] [nM] | Activity (Method): pIC50 class against ErbB2 or EGFR (ErbB2 or EGFR; [2]) | IC50 (Colo205 tumor cell lines) [nM] | Activity (Method): pIC50 class against ErbB2 or EGFR (ErbB2 or EGFR; [3])
CN(C)CCOc1cccc(Nc2nccc(-c3c(-c4cccc(NC(=O)c5c(F)cccc5F)c4)nn4ccccc34)n2)c1 [Example 61, N-[3-(3-{2-[(3-{[2-(Dimethylamino)ethyl]oxy}-phenyl)amino]-4-pyrimidinyl}pyrazolo[1,5-a]pyridin-2-yl)phenyl]-2,6-difluorobenzamide] | < 100 | +++ (B) (at least one pIC50 measurement of greater than 7 against either ErbB2 or EGFR) | 100 to 1000 | –
O=C(Nc1cccc(-c2nn3ccccc3c2-c2ccnc(Nc3ccc4c(c3)CNCC4)n2)c1)c1ccccc1 [Example 62, N-(3-{3-[2-(1,2,3,4-Tetrahydro-7-isoquinolinylamino)-4-pyrimidinyl]pyrazolo[1,5-a]pyridin-2-yl}phenyl)benzamide] | < 100 | +++ (B) (at least one pIC50 measurement of greater than 7 against either ErbB2 or EGFR) | > 1000 | –
Cc1ccc(F)cc1C(=O)Nc1cccc(-c2nn3ccccc3c2-c2ccnc(Nc3cccc(F)c3)n2)c1 [Example 83, 5-Fluoro-N-[3-(3-{2-[(3-fluorophenyl)amino]-4-pyrimidinyl}pyrazolo[1,5-a]pyridin-2-yl)phenyl]-2-methylbenzamide] | 100 to 1000 | – | > 1000 | ++ (A) (at least one pIC50 measurement greater than 6 against either ErbB2 or EGFR but no measurement greater than pIC50 of 7)
Cn1cncc1C(=O)Nc1cccc(-c2nn3ccccc3c2-c2ccnc(Nc3cccc(F)c3)n2)c1 [Example 84, N-[3-(3-{2-[(3-fluorophenyl)amino]-4-pyrimidinyl}-pyrazolo[1,5-a]pyridin-2-yl)phenyl]-1-methyl-1H-imidazole-5-carboxamide] | > 1000 | +++ (B) (at least one pIC50 measurement of greater than 7 against either ErbB2 or EGFR) | > 1000 | –
O=C(Nc1cccc(-c2nn3ccccc3c2-c2ccnc(Nc3ccc(O)c(Cl)c3)n2)c1)c1c(F)cccc1F [Example 86, N-[3-(3-{2-[(3-Chloro-4-hydroxyphenyl)amino]-4-pyrimidinyl}pyrazolo[1,5-a]pyridin-2-yl)phenyl]-2,6-difluorobenzamide] | < 100 | – | > 1000 | +++ (A) (at least one pIC50 measurement of greater than 7 against either ErbB2 or EGFR)
COc1ccc(Nc2nccc(-c3c(-c4cccc(NC(=O)c5c(F)cccc5F)c4)nn4ccccc34)n2)cc1Cl [Example 87, N-{3-[3-(2-{[3-Chloro-4-(methyloxy)phenyl]amino}-4-pyrimidinyl)pyrazolo[1,5-a]pyridin-2-yl]phenyl}-2,6-difluorobenzamide] | < 100 | – | 100 to 1000 | +++ (A) (at least one pIC50 measurement of greater than 7 against either ErbB2 or EGFR)
CN1CCN(c2ccc(Nc3nccc(-c4c(-c5cccc(NC(=O)c6c(F)cccc6F)c5)nn5ccccc45)n3)cc2)CC1 [Example 91] | < 100 | +++ (B) (at least one pIC50 measurement of greater than 7 against either ErbB2 or EGFR) | 100 to 1000 | –
O=C(Nc1cccc(-c2nn3ccccc3c2-c2ccnc(Nc3ccc(Cc4ccncc4)cc3)n2)c1)c1c(F)cccc1F [Example 94] | < 100 | – | > 1000 | +++ (A) (at least one pIC50 measurement of greater than 7 against either ErbB2 or EGFR)
O=C(NC1CC1)c1ccc(Nc2nccc(-c3c(-c4cccc(NC(=O)c5c(F)cccc5F)c4)nn4ccccc34)n2)cc1 [Example 103, N-(3-{3-[2-({4-[(cyclopropylamino)carbonyl]phenyl}-amino)-4-pyrimidinyl]pyrazolo[1,5-a]pyridin-2-yl}phenyl)-2,6-difluorobenzamide] | < 100 | +++ (B) (at least one pIC50 measurement of greater than 7 against either ErbB2 or EGFR) | 100 to 1000 | –
CN(C)CCOc1ccc(Nc2nccc(-c3c(-c4cccc(NC(=O)c5c(F)cccc5F)c4)nn4ccccc34)n2)cc1 [Example 105, N-[3-(3-{2-[(4-{[2-(dimethylamino)ethyl]oxy}phenyl)-amino]-4-pyrimidinyl}pyrazolo[1,5-a]pyridin-2-yl)phenyl]-2,6-difluorobenzamide] | < 100 | +++ (B) (at least one pIC50 measurement of greater than 7 against either ErbB2 or EGFR) | < 100 | –
CN1CCN(CCOc2ccc(Nc3nccc(-c4c(-c5cccc(NC(=O)c6c(F)cccc6F)c5)nn5ccccc45)n3)cc2)CC1 [Example 106, 2,6-Difluoro-N-[3-(3-{2-[(4-{[2-(4-methyl-1-piperazinyl)ethyl]oxy}phenyl)amino]-4-pyrimidinyl}pyrazolo[1,5-a]pyridin-2-yl)phenyl]benzamide] | < 100 | – | 100 to 1000 | +++ (A) (at least one pIC50 measurement of greater than 7 against either ErbB2 or EGFR)
CCN1CCN(c2ccc(Nc3nccc(-c4c(-c5cccc(NC(=O)c6c(F)cccc6F)c5)nn5ccccc45)n3)cc2)CC1 [Example 107, N-{3-[3-(2-{[4-(4-ethyl-1-piperazinyl)phenyl]amino}-4-pyrimidinyl)pyrazolo[1,5-a]pyridin-2-yl]phenyl}-2,6-difluorobenzamide] | < 100 | +++ (B) (at least one pIC50 measurement of greater than 7 against either ErbB2 or EGFR) | < 100 | –
CN(C)Cc1ccc(Nc2nccc(-c3c(-c4cccc(NC(=O)c5c(F)cccc5F)c4)nn4ccccc34)n2)cc1 [Example 108, N-(3-{3-[2-({4-[(Dimethylamino)methyl]phenyl}-amino)-4-pyrimidinyl]pyrazolo[1,5-a]pyridin-2-yl}phenyl)-2,6-difluorobenzamide] | < 100 | +++ (B) (at least one pIC50 measurement of greater than 7 against either ErbB2 or EGFR) | < 100 | –
CN1CCN(c2cccc(Nc3nccc(-c4c(-c5cccc(NC(=O)c6c(F)cccc6F)c5)nn5ccccc45)n3)c2)CC1 [Example 109, 2,6-Difluoro-N-{3-[3-(2-{[3-(4-methyl-1-piperazinyl)-phenyl]amino}-4-pyrimidinyl)pyrazolo[1,5-a]pyridin-2-yl]phenyl}benzamide] | < 100 | +++ (B) (at least one pIC50 measurement of greater than 7 against either ErbB2 or EGFR) | 100 to 1000 | –
CN(C)CC(=O)Nc1cccc(Nc2nccc(-c3c(-c4cccc(NC(=O)c5c(F)cccc5F)c4)nn4ccccc34)n2)c1 [Example 110, N-(3-{3-[2-({3-[(N,N-dimethylglycyl)amino]phenyl}-amino)-4-pyrimidinyl]pyrazolo[1,5-a]pyridin-2-yl}phenyl)-2,6-difluorobenzamide] | 100 to 1000 | +++ (B) (at least one pIC50 measurement of greater than 7 against either ErbB2 or EGFR) | 100 to 1000 | –
CS(=O)(=O)Cc1ccc(Nc2nccc(-c3c(-c4cccc(NC(=O)c5c(F)cccc5F)c4)nn4ccccc34)n2)cc1 [Example 116, 2,6-Difluoro-N-(3-{3-[2-({4-[(methylsulfonyl)methyl]-phenyl}amino)-4-pyrimidinyl]pyrazolo[1,5-a]pyridin-2-yl}phenyl)benzamide] | < 100 | +++ (B) (at least one pIC50 measurement of greater than 7 against either ErbB2 or EGFR) | 100 to 1000 | –
